Data on 17 molecules can be found in patent publication US10330673B2, “Fluorescent chemical sensor for biological amines” (The Curators of the University of Missouri, priority 2013, dated 2019).

Series [1] can be described thus: Fluorescence titration of sensor with glutamate. It is filed as binding. The note with it: for F.E. / Ka: Table 2, analyte glutamate; for Ka: pH 5.0, 37° C. Here is the method: (§1) Fluorescence spectra were recorded on a Shimadzu RF-5301 PC spectrofluorometer at 37° C. A 1 mg/mL stock solution of I-2 in DMSO was prepared. A stock solution of I-2 in buffer (1×10^−5 M, 25 mM HEPES, 50 mM Na2S2O3, pH=5.0) was prepared. Norepinephrine, dopamine, epinephrine, and glutamate stock solutions were prepared by separately dissolving the analytes at the concentration to be used in the titration with the buffered stock solution of I-2 (thus avoiding dilution of I-2 during the experiment). I-2 was titrated with aliquots of analyte solution. The sensor was excited at 488 nm with slit widths of 5 nm.
(§2) Fluorescence spectra were recorded on a Shimadzu RF-5301 PC spectrofluorometer at 37° C. A separate 1 mg/mL stock solution of each coumarin-3-aldehyde derivative in DMSO was prepared. An aqueous stock solution of each derivative (10 μM) in buffer (25 mM HEPES, 50 mM Na2S2O3, pH=5.0) was prepared. Norepinephrine, dopamine, glutamate, and epinephrine stock solutions were prepared by separately dissolving the solid analytes at the concentration to be used in the titration with the buffered stock solutions described above and thus, avoiding dilution of the sensor during the experiment. The benzene-based NS521 derivatives were excited at 488 nm. The thiophene-based derivatives were excited at 515 nm.

A short description of series [2]: Fluorescence titration of sensor with dopamine. The format is binding. The note with it: Table 2, analyte dopamine; for Ka: pH 5.0, 37° C. The protocol:
as §1, §2

Series [3] is described as follows: Fluorescence titration of sensor with norepinephrine. It is filed as binding. The note with it: Table 2, analyte norepinephrine; for Ka: pH 5.0, 37° C. Here is the method:
as §1, §2

Series [4] can be described thus: Solubility in buffer for spectroscopic studies. It is filed as physicochemical. Conditions: 25 mM HEPES, 50 mM Na2S2O3, pH 5.0; DMSO cosolvent required. Here is the method:
Steady-state fluorescence spectroscopic studies were performed using a Horiba Scientific Fluorolog-3 Model FL3C-111 spectrofluorometer and data was collected and analyzed using HJY FluorEssence™ 3.5.1.20 software package. UV-visible spectra were obtained on a Varian Cary 1E UV-visible spectrophotometer. A stock solution of each benzene- or thiophene-based coumarin-3-aldehyde derivative (1 μM) in buffer (25 mM HEPES, 50 mM Na2S2O3, pH=5.0) was prepared. Each solution contained 1% (v/v) DMSO as a cosolvent except as noted. The slit width was 2 nm for both excitation and emission. The bound benzene- and thiophene-coumarin-3-aldehyde derivatives contained 500 mM glutamate (pH=5.0).

The conditions of series [5]: sensor of U.S. Pat. No. 7,977,120 B2; quenched by catechol group; cited from earlier work.
Series [6] deals with norepinephrine-enriched chromaffin cells. As to the kind of experiment: Live-cell confocal imaging with NS539, norepinephrine-enriched cells. The format is cell-based, bovine. Conditions: 10 μM. The protocol: (§3) Norepinephrine- and epinephrine-secreting chromaffin cells were isolated from bovine adrenal glands, separately incubated with NS539 (2b, 10 μM), and imaged using confocal fluorescence microscopy. The live cells were imaged at 458 nm which would excite any potential unbound sensor and at 514 nm which would excite the bound sensor. […] The ratio of the mean corrected total cell fluorescence intensity of norepinephrine- over epinephrine-enriched cells was approximately 27-fold (FIG. 19G).
(§4) Chromaffin cells were prepared as previously described. Approximately 3 mL of each culture media containing suspended epinephrine- and norepinephrine-enriched cells was centrifuged at 1,000 rpm for 5 min. The pellets were suspended in 2 mL Dulbecco's Modified Eagle Medium (DMEM). NS539 was added (10 μM final concentration) and each cell suspension containing sensor incubated at 37° C. for 30 min. The cells were centrifuged, the supernatant removed, and washed twice with PBS buffer. Next, the cells were taken up into 6 mL standard cell bath solution and plated onto No. 1.5 γ-irradiated poly-D-lysine coated 35 mm glass-bottom dishes (MatTek Corporation). The cells incubated on the dishes 37° C. with 5% CO2 for 1 hr prior to imaging to promote adhesion. Live cell imaging studies were performed using a Zeiss LSM 510 META laser scanning confocal microscope (Carl Zeiss Microscopy, LLC) equipped with a C-Apochromat 63x/1.2 water immersion objective lens (Carl Zeiss Microscopy, LLC). The excitation wavelengths were 458 nm and 514 nm (pixel time: 6.4 μs, detector gain: 845, amplifier gain: 1.00, amplifier offset: −0.05, pinhole: 328 μm). Image acquisition was performed using Zeiss AIM 4.2 software package (Carl Zeiss Microscopy, LLC). To compare the fluorescence intensities of the norepinephrine- vs. the epinephrine-enriched cells, the mean corrected total cell fluorescence intensities were obtained using ImageJ (National Institute of Health).

In series [7] the test system is epinephrine-enriched chromaffin cells. As to the kind of experiment: Live-cell confocal imaging with NS539, epinephrine-enriched cells. The format is cell-based, bovine. Conditions: 10 μM. The protocol:
as §3, §4

The conditions of series [8]: 1.0 μM in water (pH 7); fluorescence standard; cited from earlier work.
Setting [9] is: benzene-based compounds I, excited at 488 nm.
[10] abbreviates: thiophene-based compounds II, excited at 515 nm.
The mark [11] stands for this setting: excitation at 514 nm (bound sensor).
[12] abbreviates: ± standard deviation (n=6), 535-590 nm bandpass filter.

With `CCN(CC)c1ccc2c(-c3ccc(-c4ccccc4)cc3)c(C=O)c(=O)oc2c1` [Compound I-9], the F.E. in series [1] (setting [9]) amounted to 6.22; in series [2] (setting [9]), 1.62; in series [3] (setting [9]) it was 2.57. The results for the Ka in series [1] (setting [9]), in series [2] (setting [9]) and in series [3] (setting [9]) were 13.84 M⁻¹, 203.29 M⁻¹ and 148.79 M⁻¹, respectively. In addition, the solubility in buffer entry in series [4] is “solubility issues”.
Consider `CCN(CC)c1ccc2c(-c3cccc4ccccc34)c(C=O)c(=O)oc2c1` [Compound I-10], for which the F.E. was 6.81 in series [1] (setting [9]), 2.86 in series [2] (setting [9]) and 4.30 in series [3] (setting [9]). For the same molecule, the Ka in series [1] (setting [9]) came to 10.08 M⁻¹; in series [2] (setting [9]), 170.10 M⁻¹; in series [3] (setting [9]) it was 103.56 M⁻¹.
As to `CCN(CC)c1ccc2c(-c3cc4ccccc4s3)c(C=O)c(=O)oc2c1` [II-5], the F.E. in series [1] (setting [10]) is given as 29.65; in series [2] (setting [10]), 9.53; in series [3] (setting [10]) it was 16.62. Moreover, the results for the Ka in series [1] (setting [10]), in series [2] (setting [10]) and in series [3] (setting [10]) were 5.25 M⁻¹, 49.26 M⁻¹ and 49.65 M⁻¹, respectively.
In the case of `CCN(CC)c1ccc2c(-c3ccc(OC)c(OC)c3)c(C=O)c(=O)oc2c1` [Compound I-3], the values for the F.E. in series [1] (setting [9]), in series [2] (setting [9]) and in series [3] (setting [9]) were 6.56, 2.69 and 4.11, respectively. Moreover, the Ka in series [1] (setting [9]) is 10.21 M⁻¹; in series [2] (setting [9]), 177.46 M⁻¹; in series [3] (setting [9]), 107.17 M⁻¹.
Consider `CCN(CC)c1ccc2c(-c3cc(C)cs3)c(C=O)c(=O)oc2c1` [II-3], for which the F.E. in series [1] (setting [10]) worked out at 51.15; in series [2] (setting [10]), 23.41; in series [3] (setting [10]), 38.35. The Ka in series [1] (setting [10]) worked out at 7.40 M⁻¹; in series [2] (setting [10]), 51.10 M⁻¹; in series [3] (setting [10]), 63.65 M⁻¹.
For the molecule `CCN(CC)c1ccc2c(-c3ccccc3)c(C=O)c(=O)oc2c1` [Compound I-1], the figures for the F.E. in series [1] (setting [9]), in series [2] (setting [9]) and in series [3] (setting [9]) were 10.45, 3.23 and 6.62, respectively. In addition, the Ka turned out to be 9.43 M⁻¹ in series [1] (setting [9]), 68.07 M⁻¹ in series [2] (setting [9]) and 68.68 M⁻¹ in series [3] (setting [9]).
In the case of `CCN(CC)c1ccc2c(CCCCCN(C)Cc3ccccc3B(O)O)c(C=O)c(=O)oc2c1` ['120 sensor], the “mode of fluorescence response” value in series [5] is recorded as “turn-off mode”.
For `CCN(CC)c1ccc2c(-c3ccc(OC)c(F)c3)c(C=O)c(=O)oc2c1` [Compound I-8], the F.E. in series [1] (setting [9]) is on record as 9.31; in series [2] (setting [9]), 3.06; in series [3] (setting [9]), 6.36. Further, the Ka was 8.96 M⁻¹ in series [1] (setting [9]), 92.94 M⁻¹ in series [2] (setting [9]) and 70.18 M⁻¹ in series [3] (setting [9]).
Consider `CCN(CC)c1ccc2c(-c3ccc(C)s3)c(C=O)c(=O)oc2c1` [II-2], for which the F.E. came to 47.67 in series [1] (setting [10]), 22.18 in series [2] (setting [10]) and 32.35 in series [3] (setting [10]). The Ka in series [1] (setting [10]) stood at 6.11 M⁻¹; in series [2] (setting [10]), 54.61 M⁻¹; in series [3] (setting [10]), 58.72 M⁻¹.
Take `CCN(CC)c1ccc2c(-c3ccc(SC)cc3)c(C=O)c(=O)oc2c1` [Compound I-11]: the F.E. amounted to 9.76 in series [1] (setting [9]), 3.10 in series [2] (setting [9]) and 6.46 in series [3] (setting [9]). Moreover, the Ka worked out at 8.40 M⁻¹ in series [1] (setting [9]), 87.11 M⁻¹ in series [2] (setting [9]) and 68.82 M⁻¹ in series [3] (setting [9]).
Turning to `CCN(CC)c1ccc2c(-c3cccc(C)c3)c(C=O)c(=O)oc2c1` [Compound I-5], the F.E. in series [1] (setting [9]) turned out to be 9.97; in series [2] (setting [9]), 3.17; in series [3] (setting [9]) it was 6.59. Further, the results for the Ka in series [1] (setting [9]), in series [2] (setting [9]) and in series [3] (setting [9]) were 9.17 M⁻¹, 74.13 M⁻¹ and 68.40 M⁻¹, respectively.
With `CCN(CC)c1ccc2c(-c3ccc(Cl)s3)c(C=O)c(=O)oc2c1` [II-4], the F.E. in series [1] (setting [10]) was 33.96; in series [2] (setting [10]), 12.39; in series [3] (setting [10]), 20.78. Moreover, the values for the Ka in series [1] (setting [10]), in series [2] (setting [10]) and in series [3] (setting [10]) were 5.90 M⁻¹, 83.96 M⁻¹ and 69.25 M⁻¹, respectively.
For the molecule `CCN(CC)c1ccc2c(-c3cc(OC)c(OC)c(OC)c3)c(C=O)c(=O)oc2c1` [Compound I-4], the figures for the F.E. in series [1] (setting [9]), in series [2] (setting [9]) and in series [3] (setting [9]) were 5.57, 1.62 and 2.56, respectively. The Ka is 10.25 M⁻¹ in series [1] (setting [9]), 205.13 M⁻¹ in series [2] (setting [9]) and 159.08 M⁻¹ in series [3] (setting [9]). In addition, in series [1] (series 1 sensors, in words), the “selectivity of fluorescent response for glutamate over dopamine and norepinephrine” value is “best glutamate-selective sensor”.
In the case of `CCN(CC)c1ccc2c(-c3cccs3)c(C=O)c(=O)oc2c1` [II-1], the F.E. in series [1] (setting [10]) was 57.17; in series [2] (setting [10]) it was 25.42; in series [3] (setting [10]), 47.95. In addition, the Ka is 7.32 M⁻¹ in series [1] (setting [10]), 43.55 M⁻¹ in series [2] (setting [10]) and 65.15 M⁻¹ in series [3] (setting [10]). Moreover, the “ratio of mean corrected total cell fluorescence intensity of norepinephrine- over epinephrine-enriched cells” value in series [6] was “approximately 27 fold”. Further, the “cell fluorescence, confocal microscopy” value in series [6] (setting [11]) is on record as “strong punctate fluorescence”; in series [6] (λex = 458 nm (unbound sensor)) it was “no measurable fluorescence response”; in series [7] (excitation at 458 nm (unbound sensor)), “no fluorescence”; in series [7] (setting [11]) it was “marginal fluorescence response”. For the same molecule, the “mean corrected total cell fluorescence intensity” value is 51.0±2.6 in series [6] (setting [12]) and 1.86±0.98 in series [7] (setting [12]).
Turning to `CCOC(=O)c1ccc(-c2c(C=O)c(=O)oc3cc(N(CC)CC)ccc23)cc1` [Compound I-7], the results for the F.E. in series [1] (setting [9]), in series [2] (setting [9]) and in series [3] (setting [9]) were 4.68, 1.13 and 1.79, respectively. Also, the values for the Ka in series [1] (setting [9]), in series [2] (setting [9]) and in series [3] (setting [9]) were 6.95 M⁻¹, 107.45 M⁻¹ and 81.50 M⁻¹, respectively. Moreover, the solubility in buffer entry in series [4] was “solubility issues”.
Take `CCN(CC)c1ccc2c(-c3ccccc3C(=O)O)c3ccc(=[N+](CC)CC)cc-3oc2c1.[Cl-]` [rhodamine B]: the “absolute Φfl” value in series [8] is recorded as 0.31.
Turning to `CCN(CC)c1ccc2c(-c3ccc(OC)c(C)c3)c(C=O)c(=O)oc2c1` [Compound I-6], the F.E. in series [1] (setting [9]) was 6.36; in series [2] (setting [9]), 2.41; in series [3] (setting [9]), 3.89. Also, the Ka in series [1] (setting [9]) was 10.25 M⁻¹; in series [2] (setting [9]) it was 192.05 M⁻¹; in series [3] (setting [9]) it was 135.98 M⁻¹.
